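Results reflect a 48-hour exposure of cells in 96-well plates to compound at five concentrations. Here, GI50 denotes the concentration required for 50% inhibition of growth.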 Calls of active or inactive are those of the source. No stated cut-off is given here; in the data, active = GI50 up to about 1.1 µM and inactive = higher.
What was measured:
Test in all cases: NCI tumour cell line growth inhibition, 48 h
[1] = tested on: MDA-MB-231
[2] = tested on: SW-620
[3] = tested on: EKVX
[4] = tested on: LOX IMVI
[5] = tested on: MDA-MB-435
[6] = tested on: OVCAR-5
[7] = tested on: KM12
[8] = tested on: CCRF-CEM
[9] = tested on: OVCAR-3
[10] = tested on: UACC-62
[11] = tested on: COLO 205
[12] = tested on: SNB-19
[13] = tested on: A549
[14] = tested on: BT-549
[15] = tested on: MDA-N
[16] = tested on: HCC 2998
[17] = tested on: SK-MEL-5
[18] = tested on: A498
[19] = tested on: Malme-3M

SMILES	GI50 [1]	GI50 [2]	GI50 [3]	GI50 [4]	GI50 [5]	GI50 [6]	GI50 [7]	GI50 [8]	GI50 [9]	GI50 [10]	GI50 [11]	GI50 [12]	GI50 [13]	GI50 [14]	GI50 [15]	GI50 [16]	GI50 [17]	GI50 [18]	GI50 [19]
COC(=O)C12CCC(C)(C)CC1C1=CCC3C4(C)CC(O)C(O)C(C)(C(=O)OC)C4CCC3(C)C1(CO)CC2 (configuration not stated)	17.4 µM (inactive)	11.4 µM (inactive)	18.9 µM (inactive)	14 µM (inactive)	15.1 µM (inactive)	17.9 µM (inactive)	9.38 µM (inactive)	14.3 µM (inactive)	16.7 µM (inactive)	14.3 µM (inactive)	15.3 µM (inactive)	16.6 µM (inactive)	13.4 µM (inactive)	14.6 µM (inactive)	13.3 µM (inactive)	13.9 µM (inactive)	16 µM (inactive)	18.7 µM (inactive)	
O=C(O)c1cc(/N=N/c2ccc([As](=O)(O)O)cc2)ccc1O	> 100 µM (inactive)	> 100 µM (inactive)	> 100 µM (inactive)	> 100 µM (inactive)	> 100 µM (inactive)	> 100 µM (inactive)	> 100 µM (inactive)	> 100 µM (inactive)	> 100 µM (inactive)	> 100 µM (inactive)	> 100 µM (inactive)	> 100 µM (inactive)	> 100 µM (inactive)	> 100 µM (inactive)	> 100 µM (inactive)	> 100 µM (inactive)	> 100 µM (inactive)	> 100 µM (inactive)	> 100 µM (inactive)
CC(=O)OCC1OC(O/C=C(\CN=[N+]=[N-])C(C)=O)C(OC(C)=O)C(OC(C)=O)C1OC(C)=O (configuration not stated)	12.7 µM (inactive)	3.53 µM (inactive)	14.7 µM (inactive)	3.47 µM (inactive)	4.57 µM (inactive)	16.5 µM (inactive)	18.7 µM (inactive)	1.39 µM (inactive)	8.59 µM (inactive)	11.6 µM (inactive)	1.74 µM (inactive)	27.6 µM (inactive)	20.7 µM (inactive)	13.4 µM (inactive)	8.85 µM (inactive)	19 µM (inactive)	13.2 µM (inactive)	20.3 µM (inactive)	3.05 µM (inactive)
CCOC(=O)CCc1cc(=O)oc2cc(O)cc(O)c12	> 100 µM (inactive)	> 100 µM (inactive)	62.5 µM (inactive)	> 100 µM (inactive)	> 100 µM (inactive)	> 100 µM (inactive)	> 100 µM (inactive)	> 100 µM (inactive)	> 100 µM (inactive)	> 100 µM (inactive)	> 100 µM (inactive)	> 100 µM (inactive)	> 100 µM (inactive)	> 100 µM (inactive)	> 100 µM (inactive)	52.7 µM (inactive)	> 100 µM (inactive)	50.1 µM (inactive)	> 100 µM (inactive)
NC1=NN(c2ccccc2)C2(c3ccncc3C(=O)O)C1C(N)=NN2c1ccccc1 (configuration not stated)	> 100 µM (inactive)	> 100 µM (inactive)	> 100 µM (inactive)	> 100 µM (inactive)	> 100 µM (inactive)	> 100 µM (inactive)	> 100 µM (inactive)	> 100 µM (inactive)	> 100 µM (inactive)	> 100 µM (inactive)	> 100 µM (inactive)	> 100 µM (inactive)	> 100 µM (inactive)	> 100 µM (inactive)	> 100 µM (inactive)	> 100 µM (inactive)	> 100 µM (inactive)	> 100 µM (inactive)	> 100 µM (inactive)
CCN(CC)CCOC(=O)CCN1CC2CCC(CC2)C1	> 100 µM (inactive)	> 100 µM (inactive)	> 100 µM (inactive)	> 100 µM (inactive)	> 100 µM (inactive)	> 100 µM (inactive)	> 100 µM (inactive)	> 100 µM (inactive)	> 100 µM (inactive)	> 100 µM (inactive)	> 100 µM (inactive)	> 100 µM (inactive)	> 100 µM (inactive)	> 100 µM (inactive)	> 100 µM (inactive)	> 100 µM (inactive)	> 100 µM (inactive)	> 100 µM (inactive)	> 100 µM (inactive)
CCOC(=O)/C=C/[C@H](O[Si](c1ccccc1)(c1ccccc1)c1ccccc1)C(C)(C)C	> 31.6 µM (inactive)	> 31.6 µM (inactive)	> 31.6 µM (inactive)	> 31.6 µM (inactive)	> 31.6 µM (inactive)	> 10 µM (inactive)	15.8 µM (inactive)	15.8 µM (inactive)	> 31.6 µM (inactive)	> 31.6 µM (inactive)	> 31.6 µM (inactive)	> 31.6 µM (inactive)	23.3 µM (inactive)	> 10 µM (inactive)	> 31.6 µM (inactive)	5.92 µM (inactive)	10.2 µM (inactive)	> 31.6 µM (inactive)	> 31.6 µM (inactive)
N=C(N)NS(=O)(=O)c1ccc(Nc2c3ccccc3nc3c(C(=O)NC(CO)(CO)CO)cccc23)cc1	21.8 µM (inactive)	17.6 µM (inactive)	> 100 µM (inactive)	18.7 µM (inactive)	24.9 µM (inactive)	11.9 µM (inactive)	14.9 µM (inactive)	4.63 µM (inactive)	27.5 µM (inactive)	19.5 µM (inactive)	12.6 µM (inactive)	28.1 µM (inactive)	9.66 µM (inactive)	13.4 µM (inactive)	35.6 µM (inactive)	32.1 µM (inactive)	17.5 µM (inactive)	19.3 µM (inactive)	19.4 µM (inactive)
N#Cc1cccc(N2C(=O)C3C4C=CC(C3C2=O)C2C(=O)N(c3cccc(C#N)c3)C(=O)C42)c1 (configuration not stated)	> 51.5 µM (inactive)	> 100 µM (inactive)	> 100 µM (inactive)	61.9 µM (inactive)	> 100 µM (inactive)	> 63.1 µM (inactive)	> 56.2 µM (inactive)	44.8 µM (inactive)	> 77.3 µM (inactive)	54 µM (inactive)	> 63.1 µM (inactive)	31.2 µM (inactive)	51.2 µM (inactive)	17.7 µM (inactive)	> 100 µM (inactive)	> 56.2 µM (inactive)	> 63.1 µM (inactive)	22.4 µM (inactive)	53.6 µM (inactive)
CC1(C)C/C=C\CCC(O)C(O)CCC(C)(C)C1=O (configuration not stated)	> 100 µM (inactive)	> 100 µM (inactive)	> 100 µM (inactive)	> 100 µM (inactive)	> 100 µM (inactive)	> 100 µM (inactive)	> 100 µM (inactive)	> 100 µM (inactive)	> 100 µM (inactive)	> 100 µM (inactive)	> 100 µM (inactive)	> 100 µM (inactive)	> 100 µM (inactive)	> 100 µM (inactive)	> 100 µM (inactive)	17.1 µM (inactive)	> 100 µM (inactive)	> 100 µM (inactive)	> 100 µM (inactive)
Cn1c2ccc3cc2c(=S)c2cc(ccc21)OCCOCCOCCOCCOCCO3	> 10 µM (inactive)	> 10 µM (inactive)	> 10 µM (inactive)	> 10 µM (inactive)	> 10 µM (inactive)	> 10 µM (inactive)	> 10 µM (inactive)	> 10 µM (inactive)	> 10 µM (inactive)	> 10 µM (inactive)	> 10 µM (inactive)	> 10 µM (inactive)	> 10 µM (inactive)	> 10 µM (inactive)	> 10 µM (inactive)	> 10 µM (inactive)	> 10 µM (inactive)	> 10 µM (inactive)	> 10 µM (inactive)
COc1ccc(-n2c(CCC(=O)O)nc3c2C(=O)c2ccccc2C3=O)cc1	> 100 µM (inactive)	> 100 µM (inactive)	> 100 µM (inactive)	28.3 µM (inactive)	96.4 µM (inactive)	> 100 µM (inactive)	> 100 µM (inactive)	88.9 µM (inactive)	98.2 µM (inactive)	> 100 µM (inactive)	> 100 µM (inactive)	> 100 µM (inactive)	> 100 µM (inactive)	> 100 µM (inactive)	> 100 µM (inactive)	> 100 µM (inactive)	> 100 µM (inactive)	> 100 µM (inactive)	
N[C@H]1CCN(c2c(F)cc3c(=O)c(C(=O)O)cn4c3c2Oc2cc3c(ccc5ccccc53)cc2-4)C1	0.014 µM (active)	3.27 µM (inactive)	3.65 µM (inactive)	3.08 µM (inactive)	3.88 µM (inactive)	11 µM (inactive)	3.49 µM (inactive)		4.48 µM (inactive)	6.14 µM (inactive)	2.75 µM (inactive)	5.81 µM (inactive)	3.87 µM (inactive)	6.46 µM (inactive)	3.03 µM (inactive)	1.99 µM (inactive)	1.87 µM (inactive)	3.56 µM (inactive)	4.43 µM (inactive)
COc1ccc(N2C(=O)CC(c3c[nH]c4ccccc34)C2=O)cc1 (configuration not stated)	> 100 µM (inactive)	> 100 µM (inactive)	> 100 µM (inactive)	> 100 µM (inactive)	> 100 µM (inactive)	> 100 µM (inactive)		> 100 µM (inactive)	> 100 µM (inactive)	> 100 µM (inactive)	> 100 µM (inactive)	> 100 µM (inactive)	> 100 µM (inactive)	> 100 µM (inactive)	> 100 µM (inactive)	> 100 µM (inactive)	> 100 µM (inactive)	> 100 µM (inactive)	> 100 µM (inactive)
